Source: PMC7098370 (Toxicological Sciences, 2020)

Assays:
rats = experiment: Acute oral toxicity testing; format: in vivo, rat
[1] = Bioelution in simulated intestinal fluid; conditions: simulated intestinal fluid pH 7.4, 24 h
[2] = Bioelution in simulated gastric fluid; conditions: simulated gastric fluid pH 1.5, 2 h, 37°C
[3] = Plasma toxicokinetic study; format: in vivo, rat; conditions: for C max / K el / t 1/2 / Bioavailability (relative): 300 mg test item/kg PO; for Bioavailability (relative): vs CoCl2 IV

SMILES	Acute LD50 (mg Co/kg bw) (rats; OECD 401 or 425)	Acute LD50 (mg substance/kg bw) (rats; OECD 401 or 425, listed as Co Lithium Dioxide)	Bioelution of Co in intestinal fluid (% release) [1]	Bioelution of Co in intestinal fluid / cobalt release (µg Co/g sample) ([1]; listed as Co Lithium Dioxide)	Bioelution of Co in gastric fluid (% release), 2 h [2] [% release]	C max ([3]; females) [ng/mL]	K el ([3]; females) [h⁻¹]	t 1/2 ([3]; females) [h]	Bioavailability (relative) ([3]; females)	Bioavailability (relative) ([3]; females, listed as Co lithium dioxide) [%]	C max ([3]; males) [ng/mL]	K el ([3]; males) [h⁻¹]	t 1/2 ([3]; males) [h]	Bioavailability (relative) ([3]; males)	Bioavailability (relative) ([3]; males, listed as Co lithium dioxide) [%]	Bioavailability calculated from AUC as % of CoCl2 IV AUC, average of m + f: relative bioavailability ([3]; oral, rats, average of males and females)	Bioelution of Co in intestinal fluid / cobalt release (µg Co/g sample) ([1]; listed as Co Oxide Hydroxide)	Bioelution of Co in gastric fluid / cobalt release (µg Co/g sample), 2 h ([2]; listed as Co Oxide Hydroxide) [µg Co/g sample]
[Li+].[O]=[Co][O-] [CoLiO2, Cobalt lithium oxide]	> 3011	> 5000	0.02 (24 h) % release	134 (24 h) µg Co/g sample	5.9	2.88	0.0568	12.20	0.25 (relative) %	0.25	3.45	0.0535	13.0	0.30 (relative) %	0.3	Relative bioavailability 0.28%		
[O]=[Co][OH] [CoOOH, Cobalt oxyhydroxide]			0.06 (24 h) % release		0.85												370 (24 h) µg Co/g sample	4460
